{"source": "patent US11944665B2", "about": "“Methods and compositions for modulating lymphatic vessels in the central nervous system” (University of Virginia Patent Foundation, priority 2016, dated 2024)", "key": {"[1]": {"tested_on": "meningeal lymphatic vessels", "assay": "Visudyne meningeal lymphatic ablation, Aβ42 drainage and efflux (Example 1)", "format": "in vivo, C57BL/6 mice", "settings": "vs vehicle", "protocol": "Visudyne (verteporfin) or vehicle (as control) were injected into the cisterna magna (intra-cisterna magna, ICM) of anesthetized adult C57BL/6 mice (3 months of age), followed by a photoconversion step that was achieved by shining a non-thermal red light (689 nm) in 5 points above the skull. 7 days after the initial procedure, Aβ42-HiLyte647 (1 μg) was stereotaxically injected (coordinates from bregma, AP=+1.5 mm, ML=−1.5 mm, DV=+2.5 mm) into the brain parenchyma. 1 h post injection, mice were transcardially perfused with saline and meninges, deep cervical lymph nodes (dcLNs) and brain were collected for analysis. Meningeal whole-mounts (scale bar, 1 mm) from vehicle (FIG. 23A) or visudyne (FIG. 23B) injected groups were stained for lymphatic vessel, endothelial hyaluronan receptor 1 (LYVE-1, green) and the blood vascular endothelial cell marker CD31 (red). Visudye alone is shown in the inset in the upper right corner of FIGS. 23A and 23B. […] Aβ42 alone is shown in the inset in the upper right corner of each of FIGS. 23E and 23F, and LYVE-1 alone is shown in the inset in the lower right corner of each of FIGS. 23E and 23F. Coronal brain sections (100 μm thick), both rostral and caudal to the injection site, were stained for glial fibrillary acidic protein (GFAP). […] Results are presented as mean±s.e.m. in FIGS. 23C, D, and G; n=6 in vehicle group and n=5 in visudyne group; *P<0.05. **P<0.01, one-tailed Mann-Whitney test; representative of 2 independent experiments)."}, "[2]": {"tested_on": "5xFAD (APPSweFILon,PSEN1*M146L*L286V) transgenic mice", "assay": "Visudyne ablation in 5xFAD mice, amyloid pathology (Example 9)", "format": "in vivo", "settings": "ablation every 3 weeks for 1.5 months", "text": "Meningeal lymphatic ablation in 1.5 months-old 5xFAD (APPSweFILon,PSEN1*M146L*L286V) transgenic mice was achieved by ICM injection of visudyne, or vehicle as a control, followed by a step of transcranial photoconversion. This procedure was repeated every 3 weeks, for a total of 1.5 months. Meninges of 5xFAD mice from the different groups were stained with DAPI and for LYVE-1 and Aβ. Aβ aggregates were detected in the meninges of 5xFAD mice that undergone lymphatic ablation by visudyne, but not in the meninges of vehicle-injected mice. Aβ aggregates formed specially around the sinuses and in the cerebellar meninges. Hippocampus was stained for DAPI and Amyloid-beta in vehicle or visudyne-injected 5xFAD mice (scale bar, 1 mm, inset, 200 μm). […] Results are presented as mean±s.e.m.; n=5 per group: *P<0.05, one-tailed Mann-Whitney test."}, "nasal lymphatics": {"tested_on": "nasal lymphatics", "assay": "Nasal lymphatics after intranasal Visudyne (Example 25)", "format": "in vivo, mice", "settings": "24 h after intranasal (i.n.) injection", "protocol": "Adult mice were injected i.c.m. with Visudyne. Fifteen to thirty minutes injection, Visudyne was converted using a non-thermal 689 nm laser applied on the intact skull. In the targeted group, the laser was aimed at 5 different spots localized above the meningeal lymphatics. In the non-targeted group, the laser was aimed further away to no convert the Visudyne localized within the meningeal lymphatics.\nThe density of exogenously injected T cells per mm2 of dCLN in targeted and non-targeted Visudyne treated mice was quantified (FIG. 49A) (expressed as percentage of the control condition)(mean±s.e.m, n=4-6 mice/group, **p=0.0072 Student t test). Images of the nasal lymphatics (Prox1GFP—green, Lyve1—red) were obtained 24 h after laser or intranasal (i.n.) injection of Visudyne. The inset illustrate the lymphatic bundle at the base of the skull that gets ablated after Visudyne treatment. Scale bar=50 μm. The density of T cells per mm2 of dCLN was quantified (FIG. 49B) or percentage of beads coverage was quantified (FIG. 49C) in the dLCN of laser, Visudyne (i.n.)+laser and Visudyne (i.c.m.)+laser treated mice (expressed as percentage of the control condition). […] T cells were quantified in the meninges of laser and Visudyne (i.c.m.)+laser treated mice at 7 days post ablation. T cells were quantified in the meninges of laser and Visudyne (i.c.m.)+laser treated mice (FIG. 49D). […]"}}, "data": [{"substance": "verteporfin [Visudyne]", "values": [{"measurement": "drainage of Aβ42 in dcLNs", "setting": "[1]; 1 h after Aβ42-HiLyte647 (1 μg) injection into brain parenchyma, 7 days post ablation", "result": "significantly less drainage"}, {"measurement": "efflux of Aβ42 from the brain (area fraction occupied by the fluorescent peptide)", "setting": "[1]; 1 h after Aβ42-HiLyte647 injection, 7 days post ablation", "result": "decreased efflux"}, {"measurement": "area of LYVE-1+ vessels (meningeal whole-mounts)", "setting": "[1]; visudyne ICM + photoconversion 689 nm, adult mice, 7 days after", "result": "significant decrease"}, {"measurement": "coverage by CD31+ vessels (meningeal whole-mounts)", "setting": "[1]; visudyne ICM + photoconversion, 7 days after", "result": "no changes"}, {"measurement": "Aβ aggregates in the meninges", "setting": "[2]; not in vehicle-injected mice", "result": "detected"}, {"measurement": "amyloid plaque coverage in the hippocampus", "setting": "[2]; vs vehicle", "result": "statistically significant increase"}, {"measurement": "amyloid plaque number in the hippocampus", "setting": "[2]; vs vehicle", "result": "statistically significant increase"}, {"measurement": "amyloid plaque size in the hippocampus", "setting": "[2]; vs vehicle", "result": "trend for increased plaque size"}, {"measurement": "nasal lymphatic bundle at the base of the skull", "setting": "nasal lymphatics", "result": "gets ablated"}]}]}
